Experimental findings from patent US11167015B2, “Arginine and its use as a T cell modulator” (INSTITUTE FOR RESEARCH IN BIOMEDICINE, priority 2016, dated 2021) are described below.

Assay [1] relates to CD44hi CD4+ TCR transgenic T cells. Nature of the assay: Mouse experiment with dietary L-arginine: transferred HA TCR transgenic T cells in draining lymph nodes. Format: in vivo, BALB/c mice. To be noted: daily oral 1.5 mg/g body weight, 15 days after immunization with HA110-119 in CFA. How it is done:
2×10^5 CD90.1^+ CD4^+ HA TCR-transgenic T cells, on a BALB/c background, were adoptively transferred in Wt CD90.2^4 BALB/c mice. The day after, host mice were immunized s.c. with influenza HA110-119 peptide (purchased from Anaspec) emulsified in CFA. L-Arg (1.5 g/kg body weight) or PBS, as control, was daily orally administrated, starting 1 day before T cell transfer and until the end of the experiment. Draining lymph nodes were analyzed on day 15 post immunization for the presence of transferred transgenic memory CD44^hi CD90.1^+ CD4^+ T cells. Sera were collected 30 min after oral L-arginine administration to mice and L-arginine and L-threonine concentrations in sera were measured on a MassTrak (Waters) instrument at the functional genomics center in Zurich. To determine intracellular L-arginine levels, activated T cells were isolated from draining lymph nodes 60 hours after activation and 30 min after the daily L-arginine administration. Metabolites were extracted with hot 70% ethanol and analyzed by HILIC LC-MS/MS.

For assay [2], the system named is Naïve CD8+ OT-I T cells. Nature of the assay: Tcm-like phenotype and IFN-γ of OT-I T cells after in vitro priming. The assay is classed as cell-based, mouse. The source says:
FIG. 7. CD8+ T cells with increased L-arginine levels display improved anti-tumor activity in vivo. (A) Survival of activated mouse CD8+OT-I T cells (4 d) after IL-2 withdrawal. Data points represent the difference between the percentage of living T cells from cultures performed in L-Arg medium or Ctrl medium; n=11. (B) CD90.1+CD45.1/2+ and CD90.1+CD45.1+ naïve CD8+ OT-I T cells were activated for 4 days in Ctrl medium or L-Arg medium, respectively. Equal numbers of the congenically marked activated OT-I cells were co-transferred into Cd3e−/− mouse and the number of living T cells was measured in pooled spleen and lymph nodes at the indicated time points; n=3 at each time point. (C) Naïve CD8+ OT-I T cells were activated with CD3+CD28 antibodies in L-Arg medium or control (Ctrl) medium. Five days after activation, the percentage of Tcm-like cells (CD44hi, CD62L+) was measured by flow cytometry; n=15. (D) Naïve OT-I CD8+ T cells were activated in L-Arg medium or Ctrl medium and IFN-γ was quantified in culture supernatants after 5 days; n=15. (E) Same as in (D) but T cells were re-activated on day 5 day with PMA/Ionomycin; n=15. (F, G) B16.OVA melanoma cells were injected into C57BL/6 mice and tumors were allowed to grow for 10 days. Naïve OT-I CD8+ T cells were activated in vitro in L-Arg medium or Ctrl medium and injected into tumor bearing mice. Tumor burden (F) and survival (G) were assessed over time. Data are representative of three independent experiments, each performed with 7-9 mice per group. (H) B16.OVA melanoma cells were injected into C57BL/6 mice and tumors were allowed to grow for 6 clays. At day 6, naïve CD8+ OT-I T cells were transferred into tumor bearing mice and at day 7 mice were immunized with OVA peptide. Starting one day before the T cell transfer, PBS or L-arginine (1.5 mg/g body weight) was orally administered daily; n=19 from three independent experiments. Bars represent the s.e.m. *p<0.05, **p<0.01, ***p<0.001, ****p<0.0001 (Student's t-test). In (G) *p<0.05 as determined by log-rank test comparison between curves. […]

Consider `N=C(N)NCCC[C@H](N)C(=O)O` [L-arginine], for which the “CD44hi CD4+ TCR transgenic T cells recovered in draining lymph nodes compared to control mice” value in assay [1] is on record as “Three times more”. For the same compound, the “Tcm-like state (CD44hi, CD62L+)” value in assay [2] (five days after activation in L-Arg medium) is reported as “maintained a Tcm-like state”. Moreover, the “IFN-γ production upon reactivation” value in assay [2] (re-activated on day 5 with PMA/Ionomycin) is listed as “even more IFN-γ than controls”. Further, the “IFN-γ secretion after in vitro priming” value in assay [2] (supernatants after 5 days) is on record as “secreted less IFN-γ than controls”.
